# Assays:
# [1] = tested on: K562-Bax 65 cells; test: Western blot of Bax expression and cytosolic cytochrome C in clone K562-Bax 65; type: cell-based, Human; conditions: 5 nM coumermycin, 36 hr
# Source text: (§1) It has been reported that high-level expression of Bax (Bcl2-associated X protein) elicits apoptosis in a variety of human cancer cells (17). In malignant hematopoietic cells, including k562, Bax overexpression leads to apoptosis of the transfected cells through cytochrome C release (18). To evaluate the tightness of gene expression regulated by the chimeric transactivator, the apoptotic Bax gene was cloned into the transgene-expression cassette from the two-plasmid induction system previously described. […] Stable clones harboring the both plasmids were isolated and characterized following induction.
# [2] = molecular target: T1, chimeric transactivator λR-GyrB-NFκB (UniProt P03034+P0AES6); test: Coumermycin-induced reporter (Luc/GFP) expression, transient transfection of 293A cells with wild type transactivator; type: cell-based, Human; conditions: 5 nM, 40 hr
# T1 construct: the GyrB domain (codons 2-220 of bacterial DNA gyrase); expressed in transfected cells; host or cells: human embryonic kidney 293A cells, transient transfection with pGyrB plus reporter plasmid, or with pCUR
# Description: FIG. 2A. Either two plasmids pGFP and pGyrB (double plasmids, each 0.5 μg), or one plasmid pCUR (1.0 μg) containing the GFP gene (single plasmid), were transiently transfected into 293A cells.
# FIG. 2B. Either two plasmids pLuc and pGyrB (DP, each 0.2 μg), or one plasmid pCUR (0.4 μg) containing the Luc gene (SP), were transiently transfected into 293A cells, respectively. […] The results shown are the means for triplicate determinations and representative of 3 experiments. The transfection efficiencies were normalized by co-transfection of pRL-TK vector constitutively producing Renilla luciferase.
# Exponentially growing 293A cells were seeded at 8×10^5 in 60 mm dishes the day prior to transfection and co-transfected with 5 μg of XmnI linearized pLuc and 0.2 μg of pcDNA3.1 hygromycin using the SuperFect kit (Qiagen). Alternatively, the cells were transfected with PvuI linearized pCUR. Two days following transfection, the cells were replaced into 100 mm dishes, and selected with appropriate antibiotics for 2 weeks. Single clone was selected for further assay. […] Luc activity was determined using 20 μl of total cell lysate using the Dual-Luciferase Reporter Assay System (Promega). The reporter firefly luciferase activities were measured and normalized by the transfection efficiencies estimated by the activities of Renilla luciferase constitutively expressed from cotransfected pRL-TK. […]
# [3] = tested on: K562-Bax cells; test: Flow cytometric analysis of apoptosis (Annexin-V) in K562-Bax cells; type: cell-based, Human; conditions: 5 nM coumermycin, 36 hr; 6.7% without treatment
# Source text: as §1
# [4] = tested on: S92G-mutated chimeric λR-GyrB transactivator; test: Coumermycin-dependent luciferase activity in stable 293A clones (pCUR, S92G transactivator); type: cell-based, Human
# Description: FIG. 4B. […] Results represent two independent experiments performed in triplicate.
# Alternatively, the cells were transfected with PvuI linearized pCUR. Two days following transfection, the cells were replaced into 100 mm dishes, and selected with appropriate antibiotics for 2 weeks. Single clone was selected for further assay. […] After 40 hrs induction, cells were lysed in 100 μl lysis buffer (Promega) for 20 min. Luc activity was determined using 20 μl of total cell lysate using the Dual-Luciferase Reporter Assay System (Promega). The reporter firefly luciferase activities were measured and normalized by the transfection efficiencies estimated by the activities of Renilla luciferase constitutively expressed from cotransfected pRL-TK. For inducible expression of the Bax gene, wild-type K562 cells were transfected using electroporation with 5 μg DNA of the linearized pBax and pGyrB. Cell lines were selected with hygromycin and positive clones were screened in the induced and non-induced states using anti-Bax antibody visualized by Western blot.
# Cells were stably transfected with pCUR containing the Luc gene. […] Values are means of three independent luciferase determinations from three independently cell cultures.
# The kinetic characteristics of this inducible system were further examined in stable cell lines.
# [5] = tested on: S92G-mutated chimeric λR-GyrB transactivator; type: cell-based, Human
# Source text: FIG. 5A. […] Results represent two independent experiments performed in triplicate.
# Results shown are the means for triplicate determinations and representative of 3 experiments.
# [6] = cited from earlier work
# [7] = tested on: 293A cells; type: cell-based, Human; conditions: 25 μM, cell growth rate and CMV-GFP expression
# Description: At a concentration of 5 μM novobiocin, however, over 98% of the coumermycin-induced luciferase expression was suppressed (FIG. 5A).
compound,measurement,setting,value
coumermycin,Bax expression (Western blot),[1],greatly induced
same,cytochrome c release from mitochondria (Western blot),[1],released in substantial amounts
same,GFP expression,[2]; both plasmid systems,greatly induced
same,induction of luciferase activity,"[2]; wild type λR, double- and single-plasmid cassettes",around 50 fold
same,fraction of apoptotic cells,[3],45.5%
same,induction time at which appreciable luciferase activity was detected,"[4]; 5 nM coumermycin, clone S92G-5",5 h
same,induction time for maximal inducibility,"[4]; 5 nM coumermycin, clone S92G-5",24 h
same,higher doses causing reduced induction of gene expression,[4]; FIG. 4A,> 0.5 µM
same,concentration at which inducibility was decreased,"[4]; clone S92G-5, 40 hr",50 nM
same,concentration for maximal induction,"[4]; clone S92G-5, 40 hr",2.5 to 5 nM
same,lowest concentration giving apparent induction of luciferase expression,"[4]; clone S92G-5, 40 hr",approximately 0.5 ng/ml
same,lowest concentration giving appreciable/apparent induction of gene expression,"[4]; clone S92G-5, 40 hr, luciferase",0.5 nM
same,Luciferase Activity With Coum,"[4]; stable clone 5, coumermycin 5 nM","47,460 ± 447 Arbitrary Light Units/μg protein"
same,Activation factor,"[4]; stable clone 5, with vs without coumermycin 5 nM",5.1 × 10^3
same,Luciferase Activity With Coum,"[4]; stable clone 8, coumermycin 5 nM","52,408 ± 2,254 Arbitrary Light Units/μg protein"
same,Activation factor,"[4]; stable clone 8, with vs without coumermycin 5 nM",1.5 × 10^3
same,Luciferase Activity With Coum,"[4]; stable clone 10, coumermycin 5 nM","1,591 ± 100 Arbitrary Light Units/μg protein"
same,Activation factor,"[4]; stable clone 10, with vs without coumermycin 5 nM",3.2 × 10^3
same,Luciferase Activity With Coum,"[4]; stable clone 18, coumermycin 5 nM","7,446 ± 36 Arbitrary Light Units/μg protein"
same,Activation factor,"[4]; stable clone 18, with vs without coumermycin 5 nM",5.8 × 10^3
same,Luciferase Activity With Coum,"[4]; stable clone 23, coumermycin 5 nM","8,237 ± 204 Arbitrary Light Units/μg protein"
same,Activation factor,"[4]; stable clone 23, with vs without coumermycin 5 nM","over 10,000"
same,Activation factor,"[4]; stable clone 23, with vs without coumermycin 5 nM, listed as Coumermycin",1.4 × 10^4
same,Luciferase Activity With Coum,"[4]; stable clone 28, coumermycin 5 nM","12,292 ± 550 Arbitrary Light Units/μg protein"
same,Activation factor,"[4]; stable clone 28, with vs without coumermycin 5 nM",5.1 × 10^3
same,Luciferase Activity With Coum,"[4]; stable clone 34, coumermycin 5 nM","46,980 ± 1,300 Arbitrary Light Units/μg protein"
same,Activation factor,"[4]; stable clone 34, with vs without coumermycin 5 nM",5.8 × 10^3
same,Luciferase Activity With Coum,"[4]; stable clone 44, coumermycin 5 nM","30,151 ± 2020 Arbitrary Light Units/μg protein"
same,Activation factor,"[4]; stable clone 44, with vs without coumermycin 5 nM","over 10,000"
same,Activation factor,"[4]; stable clone 44, with vs without coumermycin 5 nM, listed as Coumermycin",1.3 × 10^4
same,Luciferase Activity With Coum,"[4]; stable clone 45, coumermycin 5 nM","1,909 ± 24 Arbitrary Light Units/μg protein"
same,Activation factor,"[4]; stable clone 45, with vs without coumermycin 5 nM",1.6 × 10^3
same,Luciferase Activity With Coum,"[4]; stable clone 47, coumermycin 5 nM","8,528 ± 43 Arbitrary Light Units/μg protein"
same,Activation factor,"[4]; stable clone 47, with vs without coumermycin 5 nM",2.1 × 10^3
CO[C@@H]1[C@@H](OC(N)=O)[C@@H](O)[C@H](Oc2ccc3c(O)c(NC(=O)c4ccc(O)c(CC=C(C)C)c4)c(=O)oc3c2C)OC1(C)C [novobiocin],extent of switch-off of coumermycin-induced luciferase expression,[5]; 2.5 μM novobiocin added after 11 hr induction with 5 nM coumermycin,nearly completely switched off
same,suppression of coumermycin-induced luciferase expression,"[5]; 5 μM novobiocin with 5 nM coumermycin, 40 hr",over 98%
same,in vivo half-life,[6],6 h
same,serum half-life,"[6]; serum, in vivo",6 h
same,cellular toxicity,[7],do not exert any detectable cellular toxicity
